# Measurements published in PubChem BioAssay AID192 (DTP/NCI, 2004).
# Where “and” joins values, the source holds several entries; their conditions need not be identical. Identical values can stand only once. Toxic doses and inconclusive results are not listed.
# Tested on: BDF1 mice, B16 melanoma ip, median survival T/C
# Assay: NCI In Vivo Anticancer Drug Screen. Data for tumor model B16 Melanoma (intraperitoneal) in B6D2F1 (BDF1) mice
# Conditions: endpoint: median survival time, higher = longer survival
# Procedure, shortened: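 Mice with transplantable tumors; drug vs vehicle groups; endpoint survival or tumor size; value = T/C.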
# [1] = dose: 6.25 mg/kg/injection, schedule: Q01DX009 (ip), vehicle: Klucel (hydroxypropylcellulose) (HPC)
# [2] = dose: 12.5 mg/kg/injection, schedule: Q01DX009 (ip), vehicle: Klucel (hydroxypropylcellulose) (HPC)
# [3] = dose: 25.0 mg/kg/injection, schedule: Q01DX009 (ip), vehicle: Klucel (hydroxypropylcellulose) (HPC)
# [4] = dose: 100.0 mg/kg/injection, schedule: Q01DX009 (ip), vehicle: saline with Tween-80
# [5] = dose: 100.0 mg/kg/injection, schedule: Q01DX009 (ip), vehicle: Klucel (hydroxypropylcellulose) (HPC)
# [6] = dose: 200.0 mg/kg/injection, schedule: Q01DX009 (ip), vehicle: Klucel (hydroxypropylcellulose) (HPC)
# [7] = dose: 50.0 mg/kg/injection, schedule: Q01DX009 (ip), vehicle: Klucel (hydroxypropylcellulose) (HPC)
# [8] = dose: 6.25 mg/kg/injection, schedule: Q01DX009 (ip), vehicle: saline with Tween-80
# [9] = dose: 12.5 mg/kg/injection, schedule: Q01DX009 (ip), vehicle: saline with Tween-80
# [10] = dose: 25.0 mg/kg/injection, schedule: Q01DX009 (ip), vehicle: saline with Tween-80
# [11] = dose: 25.0 mg/kg/injection, schedule: Q04DX003 (ip), vehicle: saline
# [12] = dose: 50.0 mg/kg/injection, schedule: Q01DX009 (ip), vehicle: saline with Tween-80
# [13] = dose: 100.0 mg/kg/injection, schedule: Q04DX003 (ip), vehicle: Klucel (hydroxypropylcellulose) (HPC)
# [14] = dose: 200.0 mg/kg/injection, schedule: Q04DX003 (ip), vehicle: Klucel (hydroxypropylcellulose) (HPC)
# [15] = dose: 400.0 mg/kg/injection, schedule: Q04DX003 (ip), vehicle: Klucel (hydroxypropylcellulose) (HPC)
structure (smiles),measurement,setting,value
Cc1c2ccccc2cc2cc[n+]3ccccc3c12,T/C,"dose: 3.75 mg/kg/injection, schedule: Q01DX009 (ip), vehicle: Klucel (hydroxypropylcellulose) (HPC)",98 % of control
same,T/C,"dose: 7.5 mg/kg/injection, schedule: Q01DX009 (ip), vehicle: Klucel (hydroxypropylcellulose) (HPC)",98 % of control
same,T/C,"dose: 15.0 mg/kg/injection, schedule: Q01DX009 (ip), vehicle: Klucel (hydroxypropylcellulose) (HPC)",102 % of control
c1ccc(CCN2CCCCC2)nc1,T/C,"dose: 1.56 mg/kg/injection, schedule: Q01DX009 (ip), vehicle: saline",109 % of control
same,T/C,"dose: 3.13 mg/kg/injection, schedule: Q01DX009 (ip), vehicle: saline",106 % of control
same,T/C,"dose: 6.25 mg/kg/injection, schedule: Q01DX009 (ip), vehicle: saline",100 % of control
COc1c(O)c2c(c3cc(C(=O)N4CCc5c4c(O)c(OC)c4[nH]c(C(=O)N6CC7CC78C6=CC(=O)c6[nH]cc(C)c68)cc54)[nH]c13)CCN2C(N)=O (configuration not stated),T/C,"dose: 10.0 micrograms/kg/injection, schedule: Q01DX009 (ip), vehicle: other",181 % of control
COc1cccc2c1cc([N+](=O)[O-])c1c(C(=O)O)cc3c(c12)OCO3,T/C,"dose: 2.5 mg/kg/injection, schedule: Q01DX009 (ip), vehicle: Klucel (hydroxypropylcellulose) (HPC)",106 % of control
same,T/C,"dose: 5.0 mg/kg/injection, schedule: Q01DX009 (ip), vehicle: Klucel (hydroxypropylcellulose) (HPC)",111 % of control
same,T/C,"dose: 10.0 mg/kg/injection, schedule: Q01DX009 (ip), vehicle: Klucel (hydroxypropylcellulose) (HPC)",94 % of control
CCCCCCCCCCCCCCCCCCN(C)C,T/C,[1],104 % of control
same,T/C,[2],107 % of control
same,T/C,[3],89 % of control and 101 % of control
CC(=O)[O][Hg][c]1cc(-c2ccc(N=Nc3c(S(=O)(=O)O)cc4cccc(N)c4c3O)cc2)ccc1N=Nc1c(S(=O)(=O)O)cc2cccc(N)c2c1O,T/C,"dose: 0.75 mg/kg/injection, schedule: Q01DX009 (ip), vehicle: saline with Tween-80",95 % of control
same,T/C,"dose: 1.5 mg/kg/injection, schedule: Q01DX009 (ip), vehicle: saline with Tween-80",90 % of control
same,T/C,"dose: 1.5 mg/kg/injection, schedule: Q04DX003 (ip), vehicle: saline with Tween-80",102 % of control
same,T/C,"dose: 3.0 mg/kg/injection, schedule: Q04DX003 (ip), vehicle: saline with Tween-80",86 % of control
COc1cc2c[n+](C)c3c(c2cc1OC)Cc1cc2c(cc1-3)OCO2,T/C,[4],120 % of control
O=C(OCOC(=O)c1ccccc1)c1ccccc1,T/C,[5],120 % of control
same,T/C,[6],106 % of control
same,T/C,"dose: 400.0 mg/kg/injection, schedule: Q01DX009 (ip), vehicle: Klucel (hydroxypropylcellulose) (HPC)",114 % of control
CCOC(=O)c1ccc(=O)[nH]c1.[Ag],T/C,"dose: 3.13 mg/kg/injection, schedule: Q01DX009 (ip), vehicle: Klucel (hydroxypropylcellulose) (HPC)",108 % of control
same,T/C,[1],100 % of control
same,T/C,[2],91 % of control
O=C1/C(=C\c2ccc([N+](=O)[O-])cc2)CS(=O)(=O)C/C1=C/c1ccc([N+](=O)[O-])cc1,T/C,[7],91 % of control
same,T/C,[5],97 % of control
same,T/C,[6],102 % of control
COC(CBr)c1ccccc1 (configuration not stated),T/C,"dose: 3.12 mg/kg/injection, schedule: Q01DX009 (ip), vehicle: Klucel (hydroxypropylcellulose) (HPC)",102 % of control
same,T/C,[1],104 % of control
same,T/C,"dose: 10.0 mg/kg/injection, schedule: Q04DX003 (ip), vehicle: Klucel (hydroxypropylcellulose) (HPC)",97 % of control
same,T/C,[2],92 % of control
same,T/C,"dose: 20.0 mg/kg/injection, schedule: Q04DX003 (ip), vehicle: Klucel (hydroxypropylcellulose) (HPC)",87 % of control
same,T/C,"dose: 40.0 mg/kg/injection, schedule: Q04DX003 (ip), vehicle: Klucel (hydroxypropylcellulose) (HPC)",87 % of control
CCCCC(CC)COP(=O)(CC(CC)CCCC)OCC(CC)CCCC (configuration not stated),T/C,[8],94 % of control
same,T/C,"dose: 6.25 mg/kg/injection, schedule: Q04DX003 (ip), vehicle: saline",107 % of control
same,T/C,"dose: 8.0 mg/kg/injection, schedule: Q04DX003 (ip), vehicle: saline with Tween-80",102 % of control
same,T/C,"dose: 12.0 mg/kg/injection, schedule: Q04DX003 (ip), vehicle: saline with Tween-80",97 % of control
same,T/C,[9],89 % of control
same,T/C,"dose: 18.0 mg/kg/injection, schedule: Q04DX003 (ip), vehicle: saline with Tween-80",100 % of control
same,T/C,[10],86 % of control
same,T/C,[11],123 % of control
c1ccc(CCN2CCC(CCc3c[nH]c4ccccc34)CC2)cc1,T/C,[9],90 % of control
same,T/C,[10],103 % of control
same,T/C,[12],94 % of control
O=C1C=CC(=O)O1 (tested in a mixture with another compound),T/C,[2],124 % of control
same,T/C,"dose: 12.5 mg/kg/injection, schedule: Q04DX003 (ip), vehicle: saline",111 % of control
same,T/C,"dose: 18.75 mg/kg/injection, schedule: Q04DX003 (ip), vehicle: Klucel (hydroxypropylcellulose) (HPC)",97 % of control
same,T/C,[11],96 % of control and 121 % of control
same,T/C,"dose: 37.5 mg/kg/injection, schedule: Q04DX003 (ip), vehicle: Klucel (hydroxypropylcellulose) (HPC)",150 % of control
same,T/C,[7],159 % of control
same,T/C,"dose: 50.0 mg/kg/injection, schedule: Q04DX003 (ip), vehicle: saline",120 % of control and 121 % of control
same,T/C,"dose: 75.0 mg/kg/injection, schedule: Q04DX003 (ip), vehicle: Klucel (hydroxypropylcellulose) (HPC)",161 % of control
same,T/C,[5],150 % of control
same,T/C,"dose: 150.0 mg/kg/injection, schedule: Q04DX003 (ip), vehicle: Klucel (hydroxypropylcellulose) (HPC)",108 % of control and 208 % of control
same,T/C,"dose: 200.0 mg/kg/injection, schedule: Q01DX009 (ip), vehicle: other",104 % of control
same,T/C,"dose: 300.0 mg/kg/injection, schedule: Q04DX003 (ip), vehicle: Klucel (hydroxypropylcellulose) (HPC)",152 % of control and 184 % of control
same,T/C,"dose: 400.0 mg/kg/injection, schedule: Q04DX003 (ip), vehicle: saline",101 % of control
CN(C)CCCC(=O)O,T/C,"dose: 100.0 mg/kg/injection, schedule: Q01DX009 (ip), vehicle: saline",98 % of control
same,T/C,"dose: 200.0 mg/kg/injection, schedule: Q01DX009 (ip), vehicle: saline",96 % of control
same,T/C,"dose: 400.0 mg/kg/injection, schedule: Q01DX009 (ip), vehicle: saline",93 % of control
CCCCCCCCCCCCCCCCCC(=O)OCC(=O)OCC(=O)[C@]1(O)Cc2c(O)c3c(c(O)c2[C@@H](OC2CC(N)C(O)C(C)O2)C1)C(=O)c1c(OC)cccc1C3=O (some centres not stated),T/C,"dose: 3.75 mg/kg/injection, schedule: Q01DX001 (ip), vehicle: water",236 % of control
same,T/C,"dose: 7.5 mg/kg/injection, schedule: Q01DX001 (ip), vehicle: water",287 % of control and 289 % of control
same,T/C,"dose: 15.0 mg/kg/injection, schedule: Q01DX001 (ip), vehicle: water",289 % of control
same,T/C,"dose: 30.0 mg/kg/injection, schedule: Q01DX001 (ip), vehicle: water",154 % of control and 289 % of control (2×)
CC(CN=Cc1ccccc1O)N=Cc1ccccc1O (configuration not stated),T/C,[2],91 % of control
same,T/C,[3],88 % of control
same,T/C,[7],87 % of control
same,T/C,[5],89 % of control
CNC(=S)N/N=C(/C)CCC/C(C)=N/NC(=S)NC,T/C,[8],94 % of control
same,T/C,[9],94 % of control
same,T/C,[10],97 % of control
O=C(O)/C=C/C(=O)Nc1ccccc1,T/C,[13],106 % of control
same,T/C,[14],96 % of control
same,T/C,[15],103 % of control
NC1=NC(=O)NC1(c1ccccc1)c1ccccc1,T/C,[12],98 % of control
same,T/C,[4],109 % of control
same,T/C,"dose: 200.0 mg/kg/injection, schedule: Q01DX009 (ip), vehicle: saline with Tween-80",97 % of control
same,T/C,"dose: 400.0 mg/kg/injection, schedule: Q01DX009 (ip), vehicle: saline with Tween-80",93 % of control
COc1ccc(OC(=O)Nc2ccccc2Cl)cc1,T/C,[13],106 % of control
same,T/C,[14],103 % of control
same,T/C,[15],103 % of control
CC1CN=C(c2ccc(NC(=O)c3ccc(C(=O)Nc4ccc(C5=NCC(C)N5)cc4)cc3)cc2)N1 (configuration not stated),T/C,[2],118 % of control
same,T/C,[3],107 % of control
NCCN.[Ni+2].[O-]c1ccccc1[O-].[O-]c1ccccc1[O-],T/C,"dose: 1.56 mg/kg/injection, schedule: Q01DX009 (ip), vehicle: saline with Tween-80",100 % of control
same,T/C,"dose: 3.13 mg/kg/injection, schedule: Q01DX009 (ip), vehicle: saline with Tween-80",97 % of control
same,T/C,[8],87 % of control
same,T/C,[9],87 % of control
O=C(O)/C(Cl)=C(/Cl)C(Cl)=C(Cl)Cl,T/C,[10],95 % of control
Cc1ccc(Cl)cc1NC(=O)c1ccccc1Cl,T/C,[5],108 % of control
same,T/C,[6],98 % of control
Cc1ccc(C)c(NC(=O)Nc2cccc(Cl)c2)c1,T/C,[5],102 % of control
same,T/C,[6],100 % of control
